Test system: 5′-[32P]-labeled templates or 5′-TAMRA-labeled templates
Assay: Photostability assay (primer extension after 405 nm excitation radiation)
Type: biochemical
Conditions: after 30 seconds of exposure at 50 W/cm2, 405 nm
Text: The photostability of an exemplary reference polymerase comprising a His-tagged version of Phi-29 polymerase (“HP1; see, e.g., U.S. Provisional Application No. 61/184,770, filed Jun. 5, 2009 for disclosure of HP1 sequence and purification) comprising the amino acid sequence of SEQ ID NO: 20, and an exemplary modified polymerase comprising the amino acid sequence of SEQ ID NO: 19 and further comprising the amino acid substitution D175A were characterized by measuring the amount of primer extension observed in each sample prior to and following exposure to excitation radiation at 405 nm Reactions (100 μL) containing 50 mM Tris, pH 7.5, 50 mM NaCl, 1 mM DTT, 2 mM MnCl2, 0.3% BSA, 10-200 nM polymerase and 100 nM nanoparticles (or premade polymerase-nanoparticle conjugates; see, e.g., U.S. Provisional Application No. 61/184,770 filed Jun. 5, 2009), and 100 nM 5′-[^32P]-labeled templates or 5′-TAMRA-labeled templates were prepared with and without the Oxygen Scavenging System (OSS). […] Polymerase activity was quantified as the % of extended primer (as compared to the total starting amount of primer), as measured by densitometric analysis. Phototoxicity is quantified by measuring the percent decrease in polymerase activity that occurs when samples are illuminated compared to non-illuminated samples. The photostability is quantified by subtracting the observed photosensitivity from 100.

## HP1: Phi-29 polymerase lacking exonuclease activity with N-terminal His-tag, linker, D12A and D66A mutations [reference compound]
  % activity retained: less than 40%

— US10093973B2, “Polymerase compositions and methods” (LIFE TECHNOLOGIES CORPORATION, priority 2009, dated 2018)
